Test results as given in paper PMC3680066 (BMC Microbiology, 2013).

Target: leucine aminopeptidase (LAP), pepA (Burkholderia pseudomallei, UniProt Q63WC3)
Assay: biochemical
Details: read-out: Relative activity (%)

leucine aminopeptidase (LAP), pepA, sequence (Q63WC3 whole entry, looked up): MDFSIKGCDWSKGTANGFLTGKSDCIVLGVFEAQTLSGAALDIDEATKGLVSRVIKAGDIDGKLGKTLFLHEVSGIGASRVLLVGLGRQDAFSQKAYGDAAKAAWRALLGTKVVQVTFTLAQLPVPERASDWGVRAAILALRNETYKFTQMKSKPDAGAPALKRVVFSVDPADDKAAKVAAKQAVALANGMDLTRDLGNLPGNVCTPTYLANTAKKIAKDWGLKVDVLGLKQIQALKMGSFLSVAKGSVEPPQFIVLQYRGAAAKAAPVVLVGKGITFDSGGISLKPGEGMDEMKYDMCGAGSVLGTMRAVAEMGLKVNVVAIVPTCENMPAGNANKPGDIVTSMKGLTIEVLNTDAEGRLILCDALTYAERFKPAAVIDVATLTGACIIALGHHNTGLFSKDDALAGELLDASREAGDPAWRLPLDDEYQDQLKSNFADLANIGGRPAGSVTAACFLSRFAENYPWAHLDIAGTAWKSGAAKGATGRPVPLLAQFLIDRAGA

CC(C)C[C@@H](N)[C@H](O)C(=O)N[C@H](C(=O)N[C@H](C(=O)N[C@@H](CC(=O)O)C(=O)O)C(C)C)C(C)C [amastatin]
activity at 2000 µM: 0%
